Test results from patent US11999747B2, “Furoquinolinediones as inhibitors of TDP2” (THE UNITED STATES OF AMERICA, AS REPRESENTED BY THE …, priority 2015, dated 2024).

Assays:
[1] = biological target: T1, recombinant human TDP2 (Homo sapiens, UniProt O95551); assay: Recombinant Tdp2 assay (gel-based, 18-mer ssDNA substrate); format: biochemical; settings: recombinant human TDP2, 25 pM, 15 min, room temperature; read-out: REC TDP2
T1 sequence (O95551 1-362): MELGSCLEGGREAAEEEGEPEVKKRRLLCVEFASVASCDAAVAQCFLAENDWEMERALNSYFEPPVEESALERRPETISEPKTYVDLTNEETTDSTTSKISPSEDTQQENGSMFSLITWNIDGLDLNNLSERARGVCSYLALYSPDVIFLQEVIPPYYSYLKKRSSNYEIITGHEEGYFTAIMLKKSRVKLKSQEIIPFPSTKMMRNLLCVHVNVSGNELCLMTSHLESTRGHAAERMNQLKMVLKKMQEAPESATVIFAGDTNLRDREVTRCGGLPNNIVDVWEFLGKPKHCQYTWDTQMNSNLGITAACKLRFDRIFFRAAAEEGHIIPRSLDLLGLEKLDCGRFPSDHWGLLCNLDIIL
Protocol: TDP2 reactions were carried out as described previously (Example 52) with the following modifications. The 18-mer single-stranded oligonucleotide DNA substrate (α^32P-cordycepin-3′-labeled) was incubated at 1 nM with 25 pM recombinant human TDP2 in the absence or presence of inhibitor for 15 min at room temperature in a buffer containing 50 mM Tris-HCl, pH 7.5, 80 mM KCl, 5 mM MgCl2, 0.1 mM EDTA, 1 mM DTT, 40 μg/mL BSA, and 0.01% Tween 20. Reactions were terminated and treated similarly to WCE and recombinant TDP1 reactions (see Examples 52 and 53).
(§1) All compounds were prepared by the methods shown in Examples 1 to 50. Routine changes in starting materials and reaction conditions, readily apparent to those of skill in the art, were used to make the particular compounds disclosed in Table 1. […] A standard Tdp2 inhibition assay, such as the assay of Example 53, is used to determine the IC50's for the compounds. LC methods are given in the General Methods section.

[2] = biological target: T2, human TDP2 (hTDP2) (Homo sapiens, UniProt O95551); assay: Whole cell extract Tdp2 assay (DT40 TDP1-/- cells complemented with human TDP2); format: biochemical; settings: whole cell extract 4 μg/mL of DT40 cells expressing hTDP2, 15 min, room temperature; read-out: WCE hTDP2
T2 construct: expressed in transfected cells; host or cells: DT40 (chicken) TDP1-/- knockout cells complemented with human TDP2; whole cell extract
T2 sequence (O95551 1-362): T1 sequence (O95551 1-362)
Protocol: DT40 knockout cells (1×10^7) for Tdp1 (TDP1−/−) complemented with human TDP2 (hTDP2) were collected, washed, and centrifuged. Cell pellets were then lysed and stored similarly to hTDP1 extracts (see above). The 18-mer single-stranded oligonucleotide was incubated at 1 nM with 4 μg/mL of whole cell extracts in the absence or presence of inhibitor for 15 min at room temperature in the WCE buffer containing 50 mM Tris HCl, pH 7.5, 80 mM KCl, 5 mM MgCl2, 2 mM EDTA, 1 mM DTT, 40 μg/mL BSA, and 0.01% Tween-20. Reactions were terminated by the addition of 1 volume of gel loading buffer [99.5% (v/v) formamide, 5 mM EDTA, 0.01% (w/v) xylene cyanol, and 0.01% (w/v) bromophenol blue]. Samples were then treated and run similarly to the hTDP1 whole cell extract (Example 51).
as §1

Row | IC50 [1] | IC50 [2] | SMILES
1 | 12 to 37 µM | 1 to 12 µM | COC(=O)c1sccc1OC(=O)c1c(C)oc2c1C(=O)c1ncccc1C2=O [Compound 62]
2 | 12 to 37 µM | 1 to 12 µM | CCOC(=O)c1c(CBr)oc2c1C(=O)c1ncccc1C2=O [Compound 63]
3 | 12 to 37 µM | ≤ 1 µM | CCOC(=O)c1c(C(C)C)oc2c1C(=O)c1ncccc1C2=O [Compound 64]
